# US9856321B2, “Anti-DR5 antibodies, polynucleotides and methods” (Daiichi Sankyo Company, Limited, priority 2010, dated 2018)
# B1: B273: mouse anti-human DR5 monoclonal antibody from hybridoma B273; heavy chain SEQ ID NO: 8, light chain SEQ ID NO: 10; IgG1, κ (antibody, listed as Mus musculus)
# heavy: MGWSCIFLFLLSVTVGVFSEVQLQQSGPELVKPGASVKISCKASGYSFIGYFMNWMKQSHGKSLEWIGRFNPYNGDTFYNQKFKGKATLTVDKSSTTAHMELLSLTSEDSAVYFCGRSAYYFDSGGYFDYWGQGTTLTVSSAKTTPPSVYPLAPGSAAQTNSMVTLGCLVKGYFPEPVTVTWNSGSLSSGVHTFPAVLQSDLYTLSSSVTVPSSTWPSETVTCNVAHPASSTKVDKKIVPRDCGCKPCICTVPEVSSVFIFPPKPKDVLTITLTPKVTCVVVDISKDDPEVQFSWFVDDVEVHTAQTQPREEQFNSTFRSVSELPIMHQDWLNGKEFKCRVNSAAFPAPIEKTISKTKGRPKAPQVYTIPPPKEQMAKDKVSLTCMITDFFPEDITVEWQWNGQPAENYKNTQPIMDTDGSYFVYSKLNVQKSNWEAGNTFTCSVLHEGLHNHHTEKSLSHSPGK
# light: MKLPVRLLVLMFWIPASSSDVVMTQTPLSLPVSLGDQASISCRSSQSLVHSNGNTYLHWYLQKPGQSPKLLIYKVSNRFSGVPDRFSGSGSGTDFTLKISRVEAEDLGIYFCSQSTHVPWTFGGGTKLEIKRADAAPTVSIFPPSSEQLTSGGASVVCFLNNFYPKDINVKWKIDGSERQNGVLNSWTDQDSKDSTYSMSSTLTLTKDEYERHNSYTCEATHKTSTSPIVKSFNRNEC
# Legend:
# [1] = test system: human melanoma cell line A375; experiment: Antitumor activity in nude mice implanted with A375 (in combination with vinblastine); format: in vivo; details: day 46; cB273 10 mg/kg tail vein days 10, 17, 24; vinblastine 10 mg/kg tail vein day 10
# [2] = test system: human colon cancer cell line DLD-1; experiment: Antitumor activity in nude mice implanted with DLD-1 (in combination with CPT-11); format: in vivo; details: day 55; cB273 10 mg/kg ip day 35; CPT-11 80 mg/kg ip days 35, 40, 43
# Procedure: CPT-11 was intraperitoneally administered at a dose of 80 mg/kg on days 35, 40, and 43 after the implantation (n=10).
# [3] = test system: human colon cancer cell line HCT-116; experiment: Antitumor activity in nude mice implanted with HCT-116 (in combination with CPT-11); format: in vivo; details: day 28; cB273 10 mg/kg tail vein day 7; CPT-11 65 mg/kg ip days 7, 10, 14
# Procedure: CPT-11 was intraperitoneally administered at a dose of 65 mg/kg on days 7, 10, and 14 after the implantation (n=10).
# [4] = test system: human colon cancer cell line HCT-15; experiment: Antitumor activity in nude mice implanted with HCT-15 (in combination with CPT-11); format: in vivo; details: day 31; cB273 10 mg/kg tail vein day 7; CPT-11 80 mg/kg ip days 7, 10, 14
# Procedure: CPT-11 was intraperitoneally administered at a dose of 80 mg/kg on days 7, 10, and 14 after the implantation (n=10).
# [5] = test system: human colon cancer cell line HCT-15; experiment: Antitumor activity in combination with 5-FU in nude mice implanted with HCT-15, comparison with conatumumab; format: in vivo; details: day 28; antibody 3 mg/kg tail vein days 7, 14, 21; 5-FU 160 mg/kg tail vein day 7
# [6] = test system: human non-small cell lung cancer cell line NCI-H1975; details: day 32; antibody 3 mg/kg tail vein days 11, 18, 25; paclitaxel 6.25 mg/kg tail vein days 11-14
# Procedure: The major axis and the minor axis of the implanted tumor were measured twice a week using an electronic digital caliper (manufactured by Mitutoyo Corporation), and the tumor volume was calculated according to the following calculation formula. Tumor volume (mm^3)=1/2×(Minor axis)^2 (mm)×(Major axis)^2 (mm)
# 3×10^6 cells of a human non-small cell lung cancer cell line NCI-H1975 (purchased from ATCC) were implanted subcutaneously in the axillary region of nude mice. […] Paclitaxel was administered to tumor-bearing mice through the tail vein on days 11, 12, 13, and 14 after the implantation at a dose of 6.25 mg/kg. The experiment was carried out at n=6. In the same manner as described above, the major axis and the minor axis of the implanted tumor were measured, and the tumor volume was calculated.
# [7] = test system: human colon cancer cell line HCT-15; experiment: Comparison of antitumor activity in nude mice implanted with HCT-15 between cB273 and conatumumab; format: in vivo; details: day 30 after the implantation
# Procedure: 1×10^7 cells of a human colon cancer cell line HCT-15 (purchased from ATCC) were implanted subcutaneously in the axillary region of nude mice. […] In the same manner as described above, the major axis and the minor axis of the implanted tumor were measured, and the tumor volume was calculated.
# [8] = test system: human lung cancer cell line NCI-H1975; experiment: Comparison of antitumor activity in nude mice implanted with NCI-H1975 between cB273 and conatumumab; format: in vivo; details: day 32 after the implantation
# Procedure: 3×10^6 cells of a human lung cancer cell line NCI-H1975 (purchased from ATCC) were implanted subcutaneously in the axillary region of nude mice. […] In the same manner as described above, the major axis and the minor axis of the implanted tumor were measured, and the tumor volume was calculated.
# [9] = test system: human T-lymphoma cell line Jurkat; experiment: In vitro cytocidal activity of mouse antibody B273, Jurkat; format: cell-based; details: 10,000 to 0.01 ng/ml with goat anti-mouse IgG Fc, 24 hours
# Procedure: (§1) Each of a human T-lymphoma cell line Jurkat and a human glioblastoma cell line U-87MG was prepared at 4.4×10^4 cells/ml in RPMI 1640 medium containing 10% FBS or MEM (Minimum Essential Medium) medium containing 10% FBS and added to a white clear bottom 96-well microplate (manufactured by Corning Incorporated) at […], and cultured overnight under the conditions of 37° C. and 5% CO2. The mouse B273 antibody or the mouse IgG1 antibody (manufactured by R&D Systems, Inc.) was mixed with the same concentration of AffiniPure goat anti-mouse IgG Fc specific (manufactured by Jackson ImmunoResearch Laboratories, Inc., #115-005-071), and the resulting mixture was added at 5 μl/well such that the final concentration of the mouse B273 antibody or the mouse IgG1 antibody was 10,000 to 0.01 ng/ml, and the cells were cultured under the conditions of 37° C. and 5% CO2 for 24 hours. The amount of ATP derived from viable cells in each well was measured by a luminometer (manufactured by Perkin Elmer, Inc.) using a CellTiter-Glo® luminescent cell viability assay kit (manufactured by Promega Corporation, #G7571) according to the attached protocol. The cytocidal activity was evaluated by taking the value obtained from the well to which the medium was added in place of the antibody solution as 100% (FIG. 1). In each graph, the cell viability is expressed as a mean±standard deviation (n=3).
# [10] = test system: human glioblastoma cell line U-87MG; experiment: In vitro cytocidal activity of mouse antibody B273, U-87MG; format: cell-based; details: 10,000 to 0.01 ng/ml with goat anti-mouse IgG Fc, 24 hours
# Procedure: as §1
molecule,measurement,setting,value
"CC[C@]1(O)C[C@@H]2CN(CCc3c([nH]c4ccccc34)[C@@](C(=O)OC)(c3cc4c(cc3OC)N(C)[C@H]3[C@@](O)(C(=O)OC)[C@H](OC(C)=O)[C@]5(CC)C=CCN6CC[C@]43[C@@H]65)C2)C1 [vinblastine, reference compound]",tumor growth inhibitory rate,[1],43.6%
"CCc1c2c(nc3ccc(OC(=O)N4CCC(N5CCCCC5)CC4)cc13)-c1cc3c(c(=O)n1C2)COC(=O)[C@]3(O)CC [CPT-11, irinotecan (CPT-11), reference compound]",tumor growth inhibitory rate,[2],29.5%
same,tumor growth inhibitory rate,[3],89.8%
same,tumor growth inhibitory rate,[4],83.5%
O=c1[nH]cc(F)c(=O)[nH]1 [5-FU],tumor growth inhibitory rate,[5],54%
conatumumab [reference compound],tumor growth inhibitory rate,[6],40%
same,tumor growth inhibitory rate,"[7]; 3 mg/kg tail vein days 6, 13, 20",27.4%
same,tumor growth inhibitory rate,"[7]; 10 mg/kg tail vein days 6, 13, 20",26.9%
same,tumor growth inhibitory rate,"[7]; 30 mg/kg tail vein days 6, 13, 20",20.3%
same,tumor growth inhibitory rate,"[8]; 3 mg/kg tail vein days 12, 19, 26",13.5%
same,tumor growth inhibitory rate,"[8]; 10 mg/kg tail vein days 12, 19, 26",12.6%
same,tumor growth inhibitory rate,[5],27%
CC(=O)O[C@H]1C(=O)[C@@]2(C)[C@H]([C@H](OC(=O)c3ccccc3)[C@]3(O)C[C@H](OC(=O)[C@H](O)[C@@H](NC(=O)c4ccccc4)c4ccccc4)C(C)=C1C3(C)C)[C@]1(OC(C)=O)CO[C@@H]1C[C@@H]2O [paclitaxel],tumor growth inhibitory rate,[6],49%
B1,"cytocidal effect (cell viability, ATP)",[9],exhibits a cytocidal effect on both cell lines in an antibody concentration-dependent manner
same,"cytocidal effect (cell viability, ATP)",[10],exhibits a cytocidal effect on both cell lines in an antibody concentration-dependent manner
